Reference: patent US11629179B2, “TWEAK-receptor agonists for use in combination with immunotherapy of a cancer” (Stichting Het Nederlands Kanker Instituut - Antoni van …, priority 2018, dated 2023)

How the values were obtained:
[1] = test system: D10; assay: NSG murine xenograft of D10 cells with adoptive cell transfer; format: in vivo, mouse; details: anti-TNF antibody injected (FIG. 4C, D)
Protocol: (§1) For xenograft studies, 1×10^6 D10 or BLM tumor cells were admixed with Matrigel (Corning) and injected subcutaneously into NSG-β2M^null mice (The Jackson Laboratory). Growth was monitored three times per week with calipers, and tumor size was calculated using the following formula: ½×length (mm)×width (mm). When tumors reached indicated sizes, mice were randomized over different treatment groups in a blinded fashion and were administered 5×10^6 human CD8 T cells, intravenously in the tail vein. In vivo persistence of T cells was stimulated by administering 100.000 U IL-2 (Proleukin, Novartis) intraperitoneally daily for three consecutive days. In selected experiments, birinapant (MedChem Express) was administered intraperitoneally once every three days. Birinipant was formulated at 3 mg/ml in 12.5% captisol (CyDex Pharmaceuticals) in water adjusted to pH 4 with hydrochloric acid. […] In selected experiments, the PD-1-blocking antibody nivolumab (Slotervaart Hospital) was given once weekly (5 mg/kg). For studies in immunocompetent mice, 3×10^5 D4M.3A cells were injected subcutaneously into C57BI/6J mice (Janvier) and tumor growth was monitored three times per week with calipers.

[2] = test system: cIAP1/2; details: Benetatos et al., 2014; FIG. 11C; cited from earlier work
[3] = test system: SK-MEL-23; assay: Caspase-3/7 dye tumor cell apoptosis after MART-1 T cell attack, SK-MEL-23; format: cell-based, human; details: combined with TRAF2 inactivation; neutralizing TNF antibody (FIG. 6B)
Protocol: (§2) 1.2×10^5 tumor cells were seeded per well in 12-well culture plates (Greiner). CD8 T cells were admixed in serial dilutions (two-fold, starting at a 1:1 ratio). After 24 hours, T cells were washed away. After a further 4 days, plates were fixed and stained for 1 hour using a crystal violet solution containing 0.1% crystal violet (Sigma) and 50% methanol (Honeywell). For quantification, remaining crystal violet was solubilized in 10% acetic acid (Sigma). Absorbance of this solution was measured on an Infinite 200 Pro spectrophotometer (Tecan) at 595 nm. In select experiments, tumor viability data was assessed with CellTiter-Blue (Promega) following manufacturer's instructions. In indicated experiments, 1 uM of birinapant (Selleck Chemicals) in DMSO (Sigma) was added during co-cultures. For Incucyte (Incucyte Zoom, Essen Bioscience) experiments, 5×10^3 tumor cells were seeded per well in 96-well culture plates (Greiner). CD8 T cells were admixed in indicated ratios and a Caspase-3/7 dye (Essen Bioscience) was added. Growth of these co-cultures was followed for 48 hours. […] In indicated experiments, enavatuzumab (indicated concentrations; Creative Biolabs) in the presence or absence of protein G (50 μg/mL; Thermo Fisher Scientific) was added. To cluster enavatuzumab, cells were pretreated for 1 hour with enavatuzumab, then protein G was added for a further 7 hours. […]

[4] = test system: BLM; assay: T cell cytotoxicity assay of BLM clones; format: cell-based, human; details: wildtype and TRAF2-deficient BLM clones in vitro (FIG. 11F)
Protocol: as §2

[5] = test system: panel of 11 human melanoma and lung cancer cell lines; assay: MART-1 T cell cytotoxicity assay in a panel of tumor cell lines; format: cell-based
Protocol: as §2

[6] = test system: D10 melanoma cells; assay: T cell cytotoxicity assay with MART-1 T cells; format: cell-based, human
Protocol: 1.2×10^5 tumor cells were seeded per well in 12-well culture plates (Greiner). CD8 T cells were admixed in serial dilutions (two-fold, starting at a 1:1 ratio). After 24 hours, T cells were washed away. After a further 4 days, plates were fixed and stained for 1 hour using a crystal violet solution containing 0.1% crystal violet (Sigma) and 50% methanol (Honeywell). For quantification, remaining crystal violet was solubilized in 10% acetic acid (Sigma). Absorbance of this solution was measured on an Infinite 200 Pro spectrophotometer (Tecan) at 595 nm. In select experiments, tumor viability data was assessed with CellTiter-Blue (Promega) following manufacturer's instructions. In indicated experiments, 1 uM of birinapant (Selleck Chemicals) in DMSO (Sigma) was added during co-cultures. For Incucyte (Incucyte Zoom, Essen Bioscience) experiments, 5×10^3 tumor cells were seeded per well in 96-well culture plates (Greiner). CD8 T cells were admixed in indicated ratios and a Caspase-3/7 dye (Essen Bioscience) was added. Growth of these co-cultures was followed for 48 hours. […] In indicated experiments, enavatuzumab (indicated concentrations; Creative Biolabs) in the presence or absence of protein G (50 μg/mL; Thermo Fisher Scientific) was added. To cluster enavatuzumab, cells were pretreated for 1 hour with enavatuzumab, then protein G was added for a further 7 hours. Then, CD8 T cells were added to the tumor cells for a further 16 hours.

[7] = test system: BLM; assay: NSG murine xenograft of BLM clones with ACT of MART-1 T cells; format: in vivo, mouse
Protocol: as §1, with “days.” for “days. Birinipant was formulated at 3 mg/ml in 12.5% captisol (CyDex Pharmaceuticals) in water adjusted to pH 4 with hydrochloric acid.”
To prepare lysates, snapfrozen tumor piecesd were weighed and lysed in RIPA buffer (50 mM TRIS pH 8.0, 150 mM NaCl, 1% Nonidet P40, 0.5% sodium deoxycholate, 0.1% SDS) supplemented with complete protease inhibitor cocktail (Roche Applied Science) and phosphatase inhibitors 10 mM NaF, 1 mM Na3VO4, 1 mM sodium pyrophosphate and 10 mM beta-glycerophosphate. Protein concentration was determined using a Bradford Protein Assay (Biorad).

[8] = test system: TRAF2; assay: Western blot analysis of TRAF2 in treated D10 melanoma cells; format: cell-based, human
Protocol: 1.2×10^5 tumor cells were seeded per well in 12-well culture plates (Greiner). CD8 T cells were admixed in serial dilutions (two-fold, starting at a 1:1 ratio). After 24 hours, T cells were washed away. After a further 4 days, plates were fixed and stained for 1 hour using a crystal violet solution containing 0.1% crystal violet (Sigma) and 50% methanol (Honeywell). For quantification, remaining crystal violet was solubilized in 10% acetic acid (Sigma). Absorbance of this solution was measured on an Infinite 200 Pro spectrophotometer (Tecan) at 595 nm. In select experiments, tumor viability data was assessed with CellTiter-Blue (Promega) following manufacturer's instructions. In indicated experiments, 1 uM of birinapant (Selleck Chemicals) in DMSO (Sigma) was added during co-cultures. […]
Cells were lysed in RIPA buffer (50 mM TRIS pH 8.0, 150 mM NaCl, 1% Nonidet P40, 0.5% sodium deoxycholate, 0.1% SDS) supplemented with complete protease inhibitor cocktail (Roche Applied Science) and phosphatase inhibitors 10 mM NaF, 1 mM Na3VO4, 1 mM sodium pyrophosphate and 10 mM beta-glycerophosphate. Protein concentration was determined using a Bradford Protein Assay (Biorad). […] Western blots were then incubated in SuperSignal West Dura Extended Duration Substrate (Thermo Scientific) and luminescence was captured on high performance autoradiography films (Amersham). […]

[9] = test system: panel of 38 human tumor cell lines; details: cited from earlier work

Molecule: infliximab: TNF blocking antibody
- tumor control of TRAF2-deficient tumors after ACT with MART-1 T cells [1]: this tumor control was dependent on TNF

Molecule: CC[C@H](NC(=O)[C@H](C)NC)C(=O)N1C[C@@H](O)C[C@H]1Cc1c(-c2[nH]c3cc(F)ccc3c2C[C@@H]2C[C@H](O)CN2C(=O)[C@H](CC)NC(=O)[C@H](C)NC)[nH]c2cc(F)ccc12 [birinapant, (2S)—N-[(2S)-1-[(2R,4S)-2-[[6-fluoro-2-[6-fluoro-3-[[(2R,4S)-4-hydroxy-1-[(2S)-2-[[(2S) (methylamino)propanoyl]amino]butanoyl]pyrrolidin-2-yl]methyl]-1H-indol-2-yl]-1H-indolyl]methyl]-4-hydroxypyrrolidin-1-yl]-1-oxobutan-2-yl]-2-(methylamino)propanamide]
- degradation of BIRC2/3 protein products (cIAP1/2) [2]: known to degrade both BIRC2/3 protein products
- sensitivity to T cell-derived TNF [3]: induced a de novo sensitivity to T cell-derived TNF in SK-MEL-23
- response to T cells, TRAF2 deletion plus cIAP1/2 inhibition [4]: synergistic response
- tumor cell survival, sgTRAF2+DMSO vs. sgTRAF2+Bir ([5]; MART-1 T cell cytotoxicity assay, p<0.001 (FIG. 6A)): significant for all cell lines
- sensitivity to T cell killing in combination with TRAF2 deletion ([5]; all tested tumor cell lines (FIG. 6A)): strong synergy between TRAF2 deletion and pharmaceutical targeting of cIAP1/2 in all tested tumor cell lines
- sensitivity to T cell killing in combination with TRAF2 inactivation ([6]; D10 cells sgCtrl or sgTRAF2, with or without birinapant (FIG. 11D)): synergized with TRAF2 inactivation in inducing sensitivity to T cell killing
- tumor control ([7]; TRAF2 KO tumors treated with birinapant (FIG. 6E)): better tumor control when compared to control tumors
- tumor volume and survival ([7]; TRAF2 genetic inactivation plus birinapant, ACT with MART-1 T cells (FIG. 6D)): induced both a reduction in tumor volume and extended survival

Molecule: anti-PD-1: PD-1-blocking antibody nivolumab given once weekly (5 mg/kg)
- tumor control and overall survival ([7]; anti-PD-1 added to TRAF2 KO plus birinapant (FIG. 6E)): superior tumor control, improving overall survival
- rejection of tumors ([7]; anti-PD-1 alone, wildtype BLM tumors (FIG. 6E)): failed to affect rejection of VVT tumors
- intratumoral TNF after ICB ([7]; non-responding setting (FIG. 11I)): failed to see an upregulation of TNF after ICB

B1: TWEAK: ligand of Fn14 (TNF-like weak inducer of apoptosis); recombinant TWEAK (Peprotech) (protein)
chain: SAPKGRKTRARRAIAAHYEVHPRPGQDGAQAGVDGTVSGWEEARINSSSPLRYNRQIGEFIVTRAGLYYLYCQVHFDEGKAVYLKLDLLVDGVLALRCLEEFSATAASSLGPQLRLCQVSGLLALRPGSSLRIRTLPWAHLKAAPFLTYFGLFQVH
- sensitization of tumor cells to T cell killing ([6]; 250 ng/mL TWEAK during exposure to MART-1 T cells (FIG. 3H)): sensitized tumor cells to T cell killing
- degradation of TRAF2 ([8]; D10 melanoma cells treated 8 hours with recombinant human TWEAK (FIG. 3G)): led to the degradation of TRAF2

B2: enavatuzumab: agonistic anti-Fn14 antibody (Creative Biolabs) (antibody, chains of the INN, looked up, V domains shown)
VH: EVQLVESGGGLVQPGGSLRLSCAASGFTFSSYWMSWVRQAPGKGLEWVAEIRLKSDNYATHYAESVKGRFTISRDDSKNSLYLQMNSLRAEDTAVYYCTGYYADAMDYWGQGTLVTVSS
VL: DIQMTQSPSSLSASVGDRVTITCRASQSVSTSSYSYMHWYQQKPGKAPKLLIKYASNLESGVPSRFSGSGSGTDFTLTISSLQPEDFATYYCQHSWEIPYTFGGGTKVEIK
- sensitivity to T cell cytotoxicity ([6]; clustered with protein G, D10 and SK-MEL-147, 1:8 T cell:tumor cell ratio (FIG. 3J, 9C)): induced sensitivity to T cell cytotoxicity in two melanoma cell lines
- dependence of sensitization on T cell-derived TNF ([6]; neutralization with anti-TNF antibody (FIG. 9D)): dependent on T cell-derived TNF
- dependence of sensitization on TRAF2 ([6]; wildtype or TRAF2-deficient tumor cells (FIG. 3J)): sensitization by enavatuzumab was dependent on TRAF2
- degradation of TRAF2 ([8]; D10 melanoma cells treated 8 hours, presence or absence of protein G (FIG. 3I)): caused degradation of TRAF2, but only upon receptor clustering by the addition of protein G

B3: Fn14 agonistic antibody: humanized anti-Fn14 agonistic antibody described by Michaelson et al. (2011) (antibody, chains of the INN, looked up, V domains shown)
VH: EVQLVESGGGLVQPGGSLRLSCAASGFTFSSYWMSWVRQAPGKGLEWVAEIRLKSDNYATHYAESVKGRFTISRDDSKNSLYLQMNSLRAEDTAVYYCTGYYADAMDYWGQGTLVTVSS
VL: DIQMTQSPSSLSASVGDRVTITCRASQSVSTSSYSYMHWYQQKPGKAPKLLIKYASNLESGVPSRFSGSGSGTDFTLTISSLQPEDFATYYCQHSWEIPYTFGGGTKVEIK
- cell lines with growth inhibition [9]: approximately 50%
